Measured values reported in US20030165954A1, “Cancer profiles” (Third Wave Technologies, Inc., priority 2002, published 2003).

Conditions: mouse, in vivo, iv

| SMILES | plasma concentrations |
| --- | --- |
| O=c1[nH]cc(F)c(=O)[nH]1 [5FU, 5-fluorouracil] | did not reach the levels in nude mice that they do in patients receiving clinical doses |
| CN(Cc1cnc2nc(N)nc(N)c2n1)c1ccc(C(=O)N[C@@H](CCC(=O)O)C(=O)O)cc1 [MTX, methotrexate] | did not reach the levels in nude mice that they do in patients receiving clinical doses |
